# US7232812B2, “Substituted azetidine compounds, their preparation and use as medicaments” (Laboratorios de Dr. Esteve S.A., priority 2004, dated 2007)
# Key:
# Format in all cases: in vivo
# rats [1] = test: Analgesia test in rats (carrageenan, thermal stimulus); conditions: Rattus norvegicus, oral route, 2 hours after administration, read-out: ED50 analgesic activity
# Procedure: III: Analgesia Test in Rats
# The inventive compounds are tested for analgesic activity as described above is carried out as described in the publication of K. Hargreaves et al., Pain, 32, 77–88, (1988). The respective part of the description is hereby incorporated by reference and forms part of the disclosure.
# The rats are transferred to the experimentation laboratory, where they remain in groups of 5, in makrolon cages with a barred floor to avoid coprophagy. At the beginning of the experiment, water and food were removed, and animals were adequately weighed and marked.
# Each rat receives via subplantar injection 0.1 ml of sterile saline solution into the left hind paw, followed by 0.1 ml of a 2% (weight/volume) carrageenan suspension in sterile saline solution into the right hind paw.
# Two hours after the subplantar injections of carrageenan and vehicle, each rat receives by oral route the compounds to be tested, suspended in 5% (weight/volume) gum arabic, administered at 10 ml per kg of body weight.
# Two hours after the administration of the compounds to be tested, the values for analgesic activity are determined. To this purpose, the rats are transferred to the methacrylate chambers of an analgesimeter provided with a glass floor. […]
# rats [2] = test: Test for activity against edema in rats (carrageenin paw); conditions: Rattus norvegicus, oral route
# Procedure: IV. Test for Activity Against Edema in Rats
# The test for activity against edema is carried out as described in the publication of Winter et al., Proc. Soc. Exp. Biol. Med. 111, 544–547, (1962). The respective part of the description is hereby incorporated by reference and forms part of the present disclosure.
# At the beginning of each experimental session the rats are deprived of food, and kept in cages within groups of 5 animals, the cages being fitted with a grating on the floor to prevent coprophagy. After a period of 24 hours without food, the animals are marked in a suitable way, weighed and hydrated via oral administration of 30 ml/kg body weight of tap water. Half an hour after the hydratisation, the compounds to be tested are administered via oral route, in an amount of 10 ml/kg body weight as a suspension in gum arabic at 5% (weigh/volume). One hour after administration of the compounds the animals receive 0.1 ml of the inflammation causing agent (carrageenin 1% weight/volume, in sterile solution), injected via subplantar route into the right hind paw of the rats. Immediately after the carrageenin injection the volume of the injected paw is determined using a plethysmometer. The readings are expressed in ml. Readings of the volume of the paw are taken every hour after administration of the carrageenin for 7 hours.
# PGE2 production [3] = test: PGE2 production in rat inflammatory exudate; conditions: rats, oral route, carrageenan sponge exudate, read-out: PGE2 Inflam. exudade ED50
# Procedure: (§1) VI: PGE2 Production in Rat Inflammatory Exudate and Gastric Mucosa
# (§2) The PGE2 production in rat inflammatory exudate and gastric mucosa is carried out as described in the publication of O Tofanetti et al., “Effect of nimesulide on cyclo-oxygenase activity in rat gastric mucosa and inflammatory exudate”, Med Sci Res 17, 745–746 (1989). The respective part of the description is hereby incorporated by reference and forms part of the present disclosure.
# (§3) For this text 6 male wistar rats (Interfauna-St Feliú de Codines, Barcelona) of approximately 200 g (each approximately 6 weeks of age) are used. The compounds to be tested are administered via oral route in gum Arabic at 5% (weight/volume) at a rate of 10 ml/kg.
# (§4) One hour after administration of the compounds and under halothane anaesthesia, each rat is implanted subcutaneously in the interescapular area a 40×15×5 mm polyester sponge, soaked in a 0.5% suspension of carrageenan. […]
# (§5) The rats's stomachs are removed and the gastric mucosa is detached from the underlying layers and by means of a 10 mm diameter die, mucosa samples from an area between the gastric corpus and pyloric antrum are taken. […] PGE2 concentrations from the inflammatory exudates and the gastric mucosa are determined by means of immunoassay reagents of Cayman Chemical kit, Ann Arbor, Mich., U.S.A. (Catalogue number: 514010) according to the manufacturer's instructions.
# PGE2 production [4] = test: PGE2 production in rat gastric mucosa; conditions: rats, oral route, read-out: PGE2 gastric mucose ED50
# Procedure: as §1, §2, §3, §4, §5
Compound,ED50 (rats [1]),ED50 (rats [2]),ED50 (PGE2 production [3]),ED50 (PGE2 production [4])
"CC1(O)CN(C(=O)c2cc(C(C)(C)C)c(O)c(C(C)(C)C)c2)C1 [Example 3, (3,5-di-tert-butyl-4-hydroxy-phenyl)-(3-hydroxy-3-methyl-azetidin-1-yl)-methanone]",0.14 mg/kg,58 mg/kg,0.5 mg/kg,7.3 mg/kg
"CC(C)(C)c1cc(CN2CC(O)C2)cc(C(C)(C)C)c1O [Example 17, 1-(3,5-di-tert-butyl-4-hydroxy-benzyl)-azetidin-3-ol]",–,62 mg/kg,–,–
"CC(C)(C)c1cc(C(=O)N2CC(O)C2)cc(C(C)(C)C)c1O [Example 1, (3,5-di-tert-butyl-4-hydroxy-phenyl)-(3-hydroxy-azetidin-1-yl)-methanone]",0.4 mg/kg,3 mg/kg,0.28 mg/kg,0.16 mg/kg
